{
  "source": "paper PMC4156053",
  "about": "“A Conserved Mitochondrial ATP-binding Cassette Transporter Exports Glutathione Polysulfide for Cytosolic Metal Cofactor Assembly” (The Journal of Biological Chemistry, 2014)",
  "molecular_target": "T1, ATM3 (Arabidopsis thaliana, UniProt Q9LVM1)",
  "T1 construct": "gene ABCB25; inside-out membrane vesicles or Ni-NTA purified in detergent; half-transporter that dimerizes",
  "T1 sequence (Q9LVM1 61-728)": "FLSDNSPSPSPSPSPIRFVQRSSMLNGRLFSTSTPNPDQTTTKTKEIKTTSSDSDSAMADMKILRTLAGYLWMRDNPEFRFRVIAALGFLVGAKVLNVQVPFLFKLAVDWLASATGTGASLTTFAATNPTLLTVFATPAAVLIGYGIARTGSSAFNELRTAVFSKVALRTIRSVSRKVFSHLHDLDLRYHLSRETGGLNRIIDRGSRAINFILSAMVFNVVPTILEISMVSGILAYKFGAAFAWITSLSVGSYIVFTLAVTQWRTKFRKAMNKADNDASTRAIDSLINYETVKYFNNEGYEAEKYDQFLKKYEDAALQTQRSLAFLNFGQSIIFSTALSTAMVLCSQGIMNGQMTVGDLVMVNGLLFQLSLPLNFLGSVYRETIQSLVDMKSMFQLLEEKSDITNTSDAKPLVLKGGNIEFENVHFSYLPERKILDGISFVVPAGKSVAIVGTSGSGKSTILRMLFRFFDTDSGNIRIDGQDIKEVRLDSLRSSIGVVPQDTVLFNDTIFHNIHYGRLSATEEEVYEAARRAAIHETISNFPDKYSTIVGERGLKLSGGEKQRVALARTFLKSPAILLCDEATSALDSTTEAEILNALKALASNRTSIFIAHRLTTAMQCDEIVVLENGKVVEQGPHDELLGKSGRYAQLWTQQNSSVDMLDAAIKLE",
  "assay": "ATPase activity, malachite green Pi release",
  "assay_type": "biochemical",
  "conditions": "5 mM Na-ATP, 5 mM MgCl2, 0.1 M HEPES-KOH pH 7.0, 30 °C",
  "data": [
    {"smiles": "Nc1ncnc2c1ncn2[C@@H]1O[C@H](COP(=O)(O)OP(=O)(O)OP(=O)(O)O)[C@@H](O)[C@H]1O", "note": "[ATP]", "values": [
      {"measurement": "ATPase activity, malachite green Pi release", "result": "retained their ATPase activity in detergent solution"}
    ]}
  ]
}
